Reference: patent publication US5583113A, “Use of a direct-acting thrombin inhibitor for the manufacture of a medicinal product having thrombolytic activity” (Synthelabo, priority 1992, dated 1996)

Test system: electrical stimulation induced occlusive aortic thrombosis
Experiment: Thrombolytic activity in a rat model of electrical stimulation induced occlusive aortic thrombosis
Format: in vivo, CD rats
Settings: for Area under the curve (cm^2 ± s.e.m.): area under the blood flow trace; for Area under the curve (cm^2 ± s.e.m.) / Number of animals showing thrombolyis: n=8; for Thrombolytic activity (result in words): in the absence of exogenous plasminogen activators
Method: The compounds which are usable according to the invention were studied in rats for their activity as thrombolytic agents in a model of electrical stimulation induced occlusive aortic thrombosis.
CD rats weighing 450 g to 500 g are anaesthetized with sodium pentobarbital (60 mg/kg i.p.) and the left renal artery is catheterized. Thrombosis is induced according to the method described by Hladovec (Throm. Haemosts. (1971), 26, 407-410). A segment of abdominal aorta approximately 1 cm in length is exposed between the renal artery and the iliac bifurcation, and an electromagnetic flow probe is placed around this segment to measure blood flow rate, and a bipolar electrode is placed downstream of the probe. After 15 minutes of stabilisation, a 5 mA direct current is applied for 5 minutes to the outer surface of the artery using a stimulator. When the flow rate reaches the zero value, previously determined by clamping the artery between the probe and the electrode, the time to formation of an occlusive thrombus is noted. After 5 minutes of stabilisation of the thrombus, the test compound or the vehicle is injected via the catheter as a 0.5 ml bolus followed by a 60 minute perfusion at 0.1 ml/min. The blood flow rate is recorded during the perfusion period. Thrombolysis is estimated by measuring the area under the blood flow trace, which reflects both the time to, and the extent of recanalisation. The results are expressed as a mean #standard error of the mean.
In animals receiving the vehicle, the abdominal aorta remains occluded throughout the period of administration. In contrast, direct acting thrombin inhibitors increase the area under the curve in a dose-dependent manner and rapidly restore blood flow.

[1] = dose 100 + 20 μg/kg + μg/kg/min
[2] = dose 100 + 20 μg/kg + μg/kg/min (bolus + 60 minute perfusion)
[3] = dose 200 + 40 μg/kg + μg/kg/min
[4] = dose 200 + 40 μg/kg + μg/kg/min (bolus + 60 minute perfusion)
[5] = dose 400 + 80 μg/kg + μg/kg/min

For `CC1CNc2c(cccc2S(=O)(=O)N[C@@H](CCCNC(=N)N)C(=O)N2CC[C@@H](C)C[C@@H]2C(=O)O)C1` (stereo partly drawn) [Argatroban, argatroban], the “% Increase (area under the curve vs vehicle)” value (“% Increase” below) (dose 25 + 5 μg/kg + μg/kg/min) was 284%, the “Area under the curve (cm^2 ± s.e.m.)” value (dose 25 + 5 μg/kg + μg/kg/min (bolus + 60 minute perfusion)) was 137.5 ± 45.6 cm^2 and the “Number of animals showing thrombolyis” value (dose 25 + 5 μg/kg + μg/kg/min) was 4. For the same molecule, the “% Increase” value [1] was 406%, the “Area under the curve (cm^2 ± s.e.m.)” value [2] was 181.1 ± 99.6 cm^2 and the “Number of animals showing thrombolyis” value [1] was 3. The “% Increase” value [3] was 1186%, the “Area under the curve (cm^2 ± s.e.m.)” value [4] was 460.3 ± 86.5 cm^2 and the “Number of animals showing thrombolyis” value [3] was 7. For the same molecule, the “Thrombolytic activity (result in words)” value was “have shown thrombolytic activity”.

With `NC(N)=NCCC[C@H](NC(=O)[C@@H]1CCCN1C(=O)[C@H](N)Cc1ccccc1)C(=O)CCl` [PPACK, D-Phe-Pro-Arg chloromethyl ketone] the “% Increase” value (dose 50 + 10 μg/kg + μg/kg/min) was 572%, the “Area under the curve (cm^2 ± s.e.m.)” value (dose 50 + 10 μg/kg + μg/kg/min (bolus + 60 minute perfusion)) was 291.7 ± 96.5 cm^2 and the “Number of animals showing thrombolyis” value (dose 50 + 10 μg/kg + μg/kg/min) was 5. For the same molecule, the “% Increase” value [1] was 556%, the “Area under the curve (cm^2 ± s.e.m.)” value [2] was 284.8 ± 98.9 cm^2 and the “Number of animals showing thrombolyis” value [1] was 5. The “% Increase” value [3] was 1148%, the “Area under the curve (cm^2 ± s.e.m.)” value [4] was 542.7 ± 75.2 cm^2 and the “Number of animals showing thrombolyis” value [3] was 7. For the same molecule, the “Thrombolytic activity (result in words)” value was “have shown thrombolytic activity”.

In the case of `CC(=O)N[C@H](Cc1ccccc1)C(=O)N1CCC[C@H]1C(=O)N[C@@H](CCCN=C(N)N)B(O)O` [DUP714, Ac-(D-Phe)-Pro-boro-Arg-OH], the “% Increase” value [1] is reported as 620%, the “Area under the curve (cm^2 ± s.e.m.)” value [2] is reported as 339.7 ± 84.7 cm^2 and the “Number of animals showing thrombolyis” value [1] is reported as 5. The “% Increase” value [3] was 667%, the “Area under the curve (cm^2 ± s.e.m.)” value [4] was 362.3 ± 61.1 cm^2 and the “Number of animals showing thrombolyis” value [3] was 7. The “% Increase” value [5] was 1118%, the “Area under the curve (cm^2 ± s.e.m.)” value (dose 400 + 80 μg/kg + μg/kg/min (bolus + 60 minute perfusion)) was 575.3 ± 99.0 cm^2 and the “Number of animals showing thrombolyis” value [5] was 8. The “Thrombolytic activity (result in words)” value was “have shown thrombolytic activity”.
